Measurements as given in the NIST ThermoML archive (doi:10.1016/j.tca.2016.06.023).

Experiments:
[1] = xn = mol fraction of the nth substance listed; conditions: 81.5 kPa, Liquid, Vibrating tube method
[2] = refractive index (Na D-line) (dimensionless); xn = mol fraction of the nth substance listed; conditions: 81.5 kPa, Liquid, Standard Abbe refractometry

Brc1ccccc1 [bromobenzene] + Clc1ccccc1
Conditions	mass density, [1] [kg/m3]	refractive index, [2]
293.15 K, x2 = 0	1495.52	1.55981
293.15 K, x2 = 0.1004	1457.81	1.55614
293.15 K, x2 = 0.2188	1413.03	1.55183
293.15 K, x2 = 0.3025	1381.12	1.54881
293.15 K, x2 = 0.4005	1343.53	1.54531
293.15 K, x2 = 0.5003	1304.91	1.54178
293.15 K, x2 = 0.6014	1265.46	1.53824
293.15 K, x2 = 0.6985	1227.24	1.53488
293.15 K, x2 = 0.7976	1187.96	1.53149
293.15 K, x2 = 0.899	1147.37	1.52802
303.15 K, x2 = 0	1481.97	1.55442
303.15 K, x2 = 0.1004	1444.57	1.55075
303.15 K, x2 = 0.2188	1400.11	1.54645
303.15 K, x2 = 0.3025	1368.44	1.54341
303.15 K, x2 = 0.4004	1331.07	1.5399
303.15 K, x2 = 0.5002	1292.73	1.53635
303.15 K, x2 = 0.6014	1253.57	1.5328
303.15 K, x2 = 0.6985	1215.65	1.52943
303.15 K, x2 = 0.7975	1176.65	1.52602
303.15 K, x2 = 0.8989	1136.37	1.52252
313.15 K, x2 = 0	1468.41	1.5489
313.15 K, x2 = 0.1004	1431.29	1.54525
313.15 K, x2 = 0.2188	1387.2	1.54094
313.15 K, x2 = 0.3025	1355.72	1.53791
313.15 K, x2 = 0.4004	1318.65	1.53439
313.15 K, x2 = 0.5002	1280.55	1.53084
313.15 K, x2 = 0.6014	1241.67	1.52729
313.15 K, x2 = 0.6985	1204.01	1.52391
313.15 K, x2 = 0.7975	1165.32	1.52049
313.15 K, x2 = 0.8989	1125.28	1.51697
323.15 K, x2 = 0	1454.85	1.54319
323.15 K, x2 = 0.1004	1418.03	1.53956
323.15 K, x2 = 0.2188	1374.22	1.53528
323.15 K, x2 = 0.3025	1342.96	1.53225
323.15 K, x2 = 0.4004	1306.14	1.52874
323.15 K, x2 = 0.5002	1268.32	1.5252
323.15 K, x2 = 0.6014	1229.71	1.52165
323.15 K, x2 = 0.6985	1192.33	1.51827
323.15 K, x2 = 0.7975	1153.89	1.51484
323.15 K, x2 = 0.8989	1114.13	1.51133
333.15 K, x2 = 0	1441.22	1.53742
333.15 K, x2 = 0.1004	1404.71	1.53383
333.15 K, x2 = 0.2188	1361.19	1.52957
333.15 K, x2 = 0.3025	1330.15	1.52657
333.15 K, x2 = 0.4004	1293.58	1.52308
333.15 K, x2 = 0.5002	1256.04	1.51956
333.15 K, x2 = 0.6014	1217.71	1.51602
333.15 K, x2 = 0.6985	1180.59	1.51266
333.15 K, x2 = 0.7975	1142.42	1.50924
333.15 K, x2 = 0.8989	1102.93	1.50574
